Among the test systems are RPMI-8226; TK-10; UACC-257; NCI/ADR-RES; MDA-N; SW-620; SR; SK-MEL-2; 786-0; ACHN; K562; OVCAR-3; MCF7; A498; COLO 205; UO-31; MDA-MB-435; HOP-62; SNB-75; U-251.
Common to all, as to assay: growth of human tumour cells (NCI), 48 h

Eight compounds from ChEMBL document CHEMBL1201862, “PubChem BioAssay data set” (2004) can be followed below.

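Cultured in 96-well plates, cells were exposed to test compound for 48 hours across five concentrations. GI50 = concentration required for 50% inhibition of growth.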 Active and inactive are the calls of the source. No stated cut-off is given here; in the data, active = GI50 up to about 1.1 µM and inactive = higher.

`OCC1CCC(n2cnc3c(O)ncnc32)O1` (configuration not stated): the GI50 was > 100 µM (inactive) in the experiment with RPMI-8226; > 1000 µM (inactive) with TK-10; > 87.9 µM (inactive) in the experiment on UACC-257; > 100 µM (inactive) with NCI/ADR-RES; > 1000 µM (inactive) in the experiment with MDA-N; > 100 µM (inactive) in the experiment with SW-620. The GI50 with SR is > 1000 µM (inactive); with SK-MEL-2 it was > 100 µM (inactive); in the experiment on 786-0, > 1000 µM (inactive); in the experiment on ACHN it was > 1000 µM (inactive); with K562, > 100 µM (inactive); in the experiment on OVCAR-3, > 100 µM (inactive). Moreover, the GI50 in the experiment on MCF7 is > 100 µM (inactive); in the experiment with A498, > 92 µM (inactive); in the experiment with COLO 205, > 100 µM (inactive); with UO-31, 502 µM (inactive); in the experiment with MDA-MB-435 it was > 1000 µM (inactive); in the experiment with HOP-62, > 100 µM (inactive).

Take `CC(CO)CCNc1ncnc2c1ncn2CCC(=O)OC(C)(C)C` (configuration not stated): the GI50 with RPMI-8226, with TK-10, in the experiment with UACC-257, in the experiment with NCI/ADR-RES, with MDA-N and in the experiment on SW-620 was > 100 µM (inactive) each time. In addition, the GI50 in the experiment on SNB-75, in the experiment on SR, in the experiment on 786-0, with ACHN, in the experiment on K562 and in the experiment on OVCAR-3 was > 100 µM (inactive) each time. The GI50 in the experiment on MCF7, with A498, in the experiment with COLO 205, with UO-31, with MDA-MB-435 and in the experiment on HOP-62 was > 100 µM (inactive) throughout.

On to `O=[N+]([O-])c1cccc(/C=N/N=c2\ccc3ccccc3[nH]2)c1O`, for which the GI50 was 1.37 µM (inactive) with RPMI-8226; 2.51 µM (inactive) in the experiment on TK-10; 2.28 µM (inactive) with UACC-257; 0.151 µM (active) in the experiment with NCI/ADR-RES; 5.64 µM (inactive) in the experiment on MDA-N; 0.632 µM (active) with SW-620. Besides, the GI50 with SR was 0.466 µM (active); in the experiment with SK-MEL-2, 4.4 µM (inactive); in the experiment on 786-0 it was 0.658 µM (active); in the experiment on ACHN it was 0.478 µM (active); with K562, 1.35 µM (inactive); in the experiment with OVCAR-3, 0.185 µM (active). For the same compound, the GI50 in the experiment on MCF7 is 1.94 µM (inactive); with U-251, 1.11 µM (active); in the experiment on A498, 5.68 µM (inactive); in the experiment on COLO 205, 2.21 µM (inactive); in the experiment with UO-31 it was 0.335 µM (active); in the experiment with MDA-MB-435 it was 2.45 µM (inactive). Also, in the experiment on HOP-62, the GI50 is 0.815 µM (active).

For the compound `O=C(CC(C(=O)c1ccco1)c1ccsc1)c1ccco1` (configuration not stated), the GI50 was > 100 µM (inactive) with RPMI-8226; > 100 µM (inactive) in the experiment with TK-10; > 100 µM (inactive) in the experiment on UACC-257; 38.6 µM (inactive) in the experiment on NCI/ADR-RES; > 100 µM (inactive) in the experiment on MDA-N; > 100 µM (inactive) in the experiment on SW-620. Also, the GI50 with SNB-75 is 47 µM (inactive); in the experiment with SR it was 67.8 µM (inactive); with 786-0, > 100 µM (inactive); in the experiment with ACHN it was > 100 µM (inactive); in the experiment with K562 it was 78 µM (inactive); with OVCAR-3, 91.2 µM (inactive). In addition, the GI50 was > 100 µM (inactive) with MCF7; > 100 µM (inactive) with U-251; > 100 µM (inactive) with A498; > 100 µM (inactive) with COLO 205; 58.9 µM (inactive) with UO-31; > 100 µM (inactive) in the experiment with MDA-MB-435. For the same compound, the GI50 in the experiment with HOP-62 was > 100 µM (inactive).

Consider `Cn1c(-c2cccs2)cc(-c2ccsc2)c1-c1cccs1`, for which the GI50 in the experiment on TK-10 is > 100 µM (inactive); with UACC-257, 52.2 µM (inactive); in the experiment on NCI/ADR-RES, > 100 µM (inactive); in the experiment on MDA-N, 55.3 µM (inactive); in the experiment with SW-620, > 100 µM (inactive); in the experiment with SNB-75, 62.1 µM (inactive). In addition, the GI50 in the experiment with SR was > 100 µM (inactive); in the experiment on 786-0 it was > 100 µM (inactive); in the experiment on ACHN it was 61.1 µM (inactive); in the experiment with K562, 75.7 µM (inactive); in the experiment with OVCAR-3, 76.7 µM (inactive); in the experiment with MCF7 it was 5.97 µM (inactive). Besides, the GI50 with U-251 was > 100 µM (inactive); in the experiment with A498, > 100 µM (inactive); in the experiment with COLO 205 it was 17.3 µM (inactive); with UO-31, > 100 µM (inactive); in the experiment on MDA-MB-435, 57.4 µM (inactive); with HOP-62, > 100 µM (inactive).

As for `Cc1nc(N)c(N2CCN(Cc3ccccc3)CC2)c(O)n1`, the GI50 in the experiment with RPMI-8226, with TK-10, in the experiment with UACC-257, in the experiment with NCI/ADR-RES, with MDA-N and in the experiment with SW-620 was > 100 µM (inactive) in each case. Moreover, the GI50 with SR, with SK-MEL-2, in the experiment on 786-0, in the experiment on ACHN, with K562 and with OVCAR-3 was > 100 µM (inactive) in each case. The GI50 in the experiment with MCF7, in the experiment on U-251, in the experiment with A498, with COLO 205, with UO-31 and in the experiment on MDA-MB-435 was > 100 µM (inactive) throughout. Also, the GI50 with HOP-62 is > 100 µM (inactive).

Turning to `Cc1nc(C)c(N2CCN(CN)CC2)c(O)n1`, the GI50 in the experiment with RPMI-8226, in the experiment on TK-10, with UACC-257, in the experiment with NCI/ADR-RES, in the experiment on MDA-N and with SW-620 was > 100 µM (inactive) throughout. The GI50 with SR was > 100 µM (inactive); with 786-0 it was 88.7 µM (inactive); in the experiment with ACHN, > 100 µM (inactive); in the experiment on K562, > 100 µM (inactive); in the experiment with OVCAR-3, > 100 µM (inactive); in the experiment with MCF7 it was > 100 µM (inactive). Also, the GI50 is 56.8 µM (inactive) in the experiment on U-251; > 100 µM (inactive) with A498; > 100 µM (inactive) with COLO 205; > 100 µM (inactive) with UO-31; > 100 µM (inactive) with MDA-MB-435; > 100 µM (inactive) in the experiment with HOP-62.

With `Cc1cn(C2CC(OC(c3ccccc3)(c3ccccc3)c3ccccc3)C(COC(c3ccccc3)(c3ccccc3)c3ccccc3)O2)c(=O)[nH]c1=O` (configuration not stated), the GI50 in the experiment on TK-10 is 42.5 µM (inactive); in the experiment on UACC-257 it was > 100 µM (inactive); with NCI/ADR-RES it was > 100 µM (inactive); in the experiment with MDA-N it was 31.8 µM (inactive); in the experiment with SW-620, 90.4 µM (inactive); in the experiment with SNB-75 it was 58.7 µM (inactive). For the same compound, the GI50 in the experiment on SR was > 100 µM (inactive); in the experiment with SK-MEL-2 it was 23.7 µM (inactive); in the experiment on 786-0 it was > 100 µM (inactive); in the experiment with ACHN, 68.4 µM (inactive); in the experiment with K562 it was 38.6 µM (inactive); in the experiment on OVCAR-3, > 100 µM (inactive). Moreover, the GI50 is 19 µM (inactive) in the experiment on MCF7; 25.4 µM (inactive) with A498; > 100 µM (inactive) in the experiment with COLO 205; 45.6 µM (inactive) in the experiment on UO-31; 26.2 µM (inactive) in the experiment on MDA-MB-435; > 100 µM (inactive) in the experiment with HOP-62.
